Like-named read-outs stand apart in the source and are kept apart here. Bridge positions count the residues as written; N and C are the ends. Square brackets hold non-standard residues; d marks the D form. Peptide text beside a SMILES is read from it. d2Nal = N[C@H](Cc1ccc2ccccc2c1)C(=O)O; Bta = N[C@@H](Cc1csc2ccccc12)C(=O)O; Pen = CC(C)(S)[C@H](N)C(=O)O; Nle = CCCC[C@H](N)C(=O)O; GABA = NCCCC(=O)O; βAla = NCCC(=O)O
Assays:
hMC5-R [1] = target: T1, hMC5-R (Homo sapiens, UniProt P33032); experiment: cyclic AMP bioassay (ECL) in CHO-K1 cells; format: cell-based
T1 construct: expressed in transfected cells; host or cells: CHO-K1
T1 sequence (P33032 whole entry): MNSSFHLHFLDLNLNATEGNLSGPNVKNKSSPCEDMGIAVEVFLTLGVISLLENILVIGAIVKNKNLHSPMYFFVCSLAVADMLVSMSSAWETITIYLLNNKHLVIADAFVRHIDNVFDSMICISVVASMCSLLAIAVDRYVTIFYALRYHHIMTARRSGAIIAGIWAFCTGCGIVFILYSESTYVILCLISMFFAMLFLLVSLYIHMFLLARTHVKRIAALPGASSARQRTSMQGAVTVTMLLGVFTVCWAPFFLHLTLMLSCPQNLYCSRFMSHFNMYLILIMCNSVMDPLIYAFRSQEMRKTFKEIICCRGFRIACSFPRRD

hMC1-R = target: T2, hMC1-R (Homo sapiens, UniProt Q01726); experiment: cyclic AMP bioassay (ECL) in CHO-K1 cells; format: cell-based
T2 construct: expressed in transfected cells; host or cells: CHO-K1
T2 sequence (Q01726 whole entry): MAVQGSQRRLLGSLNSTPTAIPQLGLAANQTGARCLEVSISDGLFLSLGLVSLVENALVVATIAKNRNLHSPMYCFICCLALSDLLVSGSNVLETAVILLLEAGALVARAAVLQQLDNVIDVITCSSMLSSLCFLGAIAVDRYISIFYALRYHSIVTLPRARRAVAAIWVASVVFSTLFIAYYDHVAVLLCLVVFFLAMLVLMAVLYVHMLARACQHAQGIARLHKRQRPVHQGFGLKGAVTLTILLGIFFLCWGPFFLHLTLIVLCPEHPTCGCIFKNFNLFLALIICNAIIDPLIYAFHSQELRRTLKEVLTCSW

hMC5-R [2] = target: T1, hMC5-R; experiment: Radioligand binding assay, [125I]-NDP-α-MSH competition, CHO-K1 membranes
Protocol: Cellular membranes used for the in vitro receptor binding assays were obtained from transgenic CHO-K1 cells stably expressing hMC-R receptor subtypes 1, 3, 4 or 5. […] The pellets were resuspended in the same buffer and centrifuged at 50,000 g for 10 minutes at approximately 4° C. The washed pellets containing the cellular membranes were stored at approximately −80° C.
Cell membranes (1-10 μg protein/well) prepared as described above were incubated in 50 mM Tris-HCl at pH 7.4 containing 0.2% bovine serum albumin (BSA), 5 mM MgCl2, 1 mM CaCl2 and 0.1 mg/mL bacitracin, with increasing concentrations of the test compound and 0.1-0.3 nM [^25I]-NDP-α-MSH for approximately 90-120 minutes at approximately 37° C. […] Filters were washed three times with 50 mM Tris-HCl at pH 7.4 at a temperature of approximately 0-4° C. and then assayed for radioactivity using a Packard Topcount® scintillation counter. Binding data were analyzed by computer-assisted non-linear regression analysis (XL fit; IDBS).

hMC3-R = target: T3, hMC3-R (Homo sapiens, UniProt P41968); experiment: cyclic AMP bioassay (ECL) in CHO-K1 cells; format: cell-based
T3 construct: expressed in transfected cells; host or cells: CHO-K1
T3 sequence (P41968 whole entry): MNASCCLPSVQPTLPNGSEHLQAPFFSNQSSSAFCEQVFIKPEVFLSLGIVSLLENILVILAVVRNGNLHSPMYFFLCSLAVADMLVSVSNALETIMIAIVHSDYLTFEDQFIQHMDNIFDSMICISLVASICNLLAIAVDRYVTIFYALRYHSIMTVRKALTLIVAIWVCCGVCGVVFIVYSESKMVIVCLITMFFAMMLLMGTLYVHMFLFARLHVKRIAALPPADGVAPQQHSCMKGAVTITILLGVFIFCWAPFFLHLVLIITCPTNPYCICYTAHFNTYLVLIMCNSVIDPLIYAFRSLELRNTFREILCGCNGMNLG
Protocol: (§1) Intracellular cyclic AMP (cAMP) levels were determined by an electrochemiluminescence (ECL) assay (Meso Scale Discovery®, Gaithersburg, Md.; referred to hereinafter as MSD). […] Transgenic CHO-K1 cells stably expressing hMC receptor subtypes 1, 3, 4 or 5 were dispensed at a density of approximately 7,000 cells/well in 384-well Multi-Array®plates (MSD) containing integrated carbon electrodes and coated with anti-cAMP antibody. Increasing concentrations of the test compounds were added and the cells were incubated for approximately 40 minutes at approximately 37° C. […] At the end of the second incubation period read buffer (Tris-buffered solution containing an ECL co-reactant and Triton X-100 at ph 7.8) was added and the cAMP levels in the cell lysates were immediately determined by ECL detection with a Sector Imager 6000 Reader® (MSD). Data were analyzed using a computer-assisted non-linear regression analysis (XL fit; IDBS) and reported as either an EC50 value or a Kb value.
(§2) The Kb value reflects the potency of an antagonist and is determined by Schild analysis. In brief, concentration-response curves of an agonist are carried out in the presence of increasing concentrations of an antagonist. […] It is calculated by extrapolating the line on a Schild plot to zero on the y-axis.

hMC4-R = target: T4, hMC4-R (Homo sapiens, UniProt P32245); experiment: cyclic AMP bioassay (ECL) in CHO-K1 cells; format: cell-based
T4 construct: expressed in transfected cells; host or cells: CHO-K1
T4 sequence (P32245 whole entry): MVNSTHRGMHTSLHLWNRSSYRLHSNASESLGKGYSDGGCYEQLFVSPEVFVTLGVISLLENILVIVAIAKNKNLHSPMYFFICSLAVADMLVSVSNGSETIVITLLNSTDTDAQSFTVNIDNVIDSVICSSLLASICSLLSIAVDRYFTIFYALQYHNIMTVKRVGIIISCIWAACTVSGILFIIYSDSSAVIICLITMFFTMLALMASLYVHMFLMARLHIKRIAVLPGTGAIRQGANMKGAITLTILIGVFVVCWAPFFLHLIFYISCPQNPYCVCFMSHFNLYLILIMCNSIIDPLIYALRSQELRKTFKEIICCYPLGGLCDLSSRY
Protocol: as §1, §2

SMILES | EC50 (hMC5-R [1]) [nM] | EC50 (hMC1-R) [nM] | Ki (hMC5-R [2]; Ki hMC5-R, Table 6) [nM] | Kb (hMC3-R) [nM] | Kb (hMC4-R) [nM] | Ki (hMC5-R [2]; Ki hMC5, Table 7) [nM] | EC50 (hMC3-R) [nM] | EC50 (hMC4-R) [nM] | EC50 (hMC5-R [1]; Table 9A/9B, read-out: EC50 hMC5-R) [nM] | EC50 (hMC1-R; Table 9A/9B, read-out: EC50 hMC1-R) [nM] | EC50 (hMC3-R; Table 9A/9B, read-out: EC50 hMC3-R) [nM] | EC50 (hMC4-R; Table 9A/9B, read-out: EC50 hMC4-R) [nM]
CC(=O)N[C@H]1CSSC[C@@H](C(=O)N2CCC[C@H]2C(=O)N2CCC[C@H]2C(=O)N[C@@H](CCCCN)C(=O)N[C@@H](CC(=O)O)C(=O)NCCC(=O)N[C@@H](CCCNC(=N)N)C(=O)N[C@@H](CCCCN)C(=O)N[C@@H](CCCNC(=N)N)C(=O)N[C@@H](CCCNC(=N)N)C(=O)N[C@@H](CCCNC(=N)N)C(=O)N[C@@H](CCC(N)=O)C(=O)N[C@@H](CCCNC(=N)N)C(=O)N[C@@H](CCCNC(=N)N)C(=O)N[C@@H](CCCNC(=N)N)C(N)=O)NC(=O)[C@H](C)NC(=O)[C@H](Cc2csc3ccccc23)NC(=O)[C@H](CCCNC(=N)N)NC(=O)[C@@H](Cc2ccc3ccccc3c2)NC(=O)[C@H](Cc2c[nH]cn2)NC(=O)[C@H](CCC(=O)O)NC1=O | 100 | 19.1 | 15.5 | 106 | 4.59 |  |  |  |  |  |  | 
C[C@H]1NC(=O)[C@@H](NC(=O)CN2C(=O)N[C@@H](CCCNC(=N)N)C2=O)CSSC[C@@H](C(N)=O)NC(=O)[C@H](Cc2c[nH]c3ccccc23)NC(=O)[C@H](CCCNC(=N)N)NC(=O)[C@@H](Cc2ccc3ccccc3c2)NC(=O)[C@H](Cc2cnc[nH]2)NC1=O [Hydantoin(C(O)-(Arg-Gly))-c(Cys-D-Ala-His-D-2-Nal-Arg-Trp-Cys)-NH2] | 103 | 96.6 |  |  |  | 14.6 | 13.1 | 21.2 |  |  |  | 
CC(=O)N[C@H]1CSSC[C@@H](C(=O)N2CCC[C@H]2C(=O)N2CCC[C@H]2C(=O)N[C@@H](CCCCN)C(=O)N[C@@H](CC(=O)O)C(=O)NCCC(=O)NCC(=O)N[C@@H](CCCNC(=N)N)C(=O)N[C@@H](CCCCN)C(=O)N[C@@H](CCCNC(=N)N)C(=O)N[C@@H](CCCNC(=N)N)C(=O)N[C@@H](CCCNC(=N)N)C(=O)N[C@@H](CCC(N)=O)C(=O)N[C@@H](CCCNC(=N)N)C(=O)N[C@@H](CCCNC(=N)N)C(=O)N[C@@H](CCCNC(=N)N)C(N)=O)NC(=O)[C@H](C)NC(=O)[C@H](Cc2csc3ccccc23)NC(=O)[C@H](CCCNC(=N)N)NC(=O)[C@@H](Cc2ccc3ccccc3c2)NC(=O)[C@H](Cc2c[nH]cn2)NC(=O)[C@H](CCC(=O)O)NC1=O | 194 | 32.2 | 15.5 | 98.3 | 5.23 |  |  |  |  |  |  | 
CC(=O)N[C@H]1CSSC[C@@H](C(=O)N2CCC[C@H]2C(=O)N2CCC[C@H]2C(=O)N[C@@H](CCCNC(=N)N)C(=O)N[C@@H](CC(=O)O)C(=O)NCCC(=O)N[C@@H](CCCNC(=N)N)C(=O)N[C@@H](CCCNC(=N)N)C(=O)N[C@@H](CCCNC(=N)N)C(=O)N[C@@H](CCCNC(=N)N)C(=O)N[C@@H](CCCNC(=N)N)C(=O)N[C@@H](CCC(N)=O)C(=O)N[C@@H](CCCNC(=N)N)C(=O)N[C@@H](CCCNC(=N)N)C(=O)N[C@@H](CCCNC(=N)N)C(N)=O)NC(=O)[C@H](C)NC(=O)[C@H](Cc2csc3ccccc23)NC(=O)[C@H](CCCNC(=N)N)NC(=O)[C@@H](Cc2ccc3ccccc3c2)NC(=O)[C@H](Cc2c[nH]cn2)NC(=O)[C@H](CCC(=O)O)NC1=O | > 10000 | 38.3 | 48.3 | 20.2 | 21.2 |  |  |  |  |  |  | 
CC(=O)N[C@H]1CSSC[C@@H](C(=O)N2CCC[C@H]2C(=O)N2CCC[C@H]2C(=O)N[C@@H](CCCNC(=N)N)C(=O)N[C@@H](CC(=O)O)C(=O)NCCC(=O)N[C@@H](CCCNC(=N)N)C(=O)N[C@@H](CCCNC(=N)N)C(=O)N[C@@H](CCCNC(=N)N)C(=O)N[C@@H](CCCNC(=N)N)C(=O)N[C@@H](CCCNC(=N)N)C(=O)N[C@@H](CCCNC(=N)N)C(=O)N[C@@H](CCC(N)=O)C(=O)N[C@@H](CCCNC(=N)N)C(=O)N[C@@H](CCCNC(=N)N)C(=O)N[C@@H](CCCNC(=N)N)C(N)=O)NC(=O)[C@H](C)NC(=O)[C@H](Cc2csc3ccccc23)NC(=O)[C@H](CCCNC(=N)N)NC(=O)[C@@H](Cc2ccc3ccccc3c2)NC(=O)[C@H](Cc2c[nH]cn2)NC(=O)[C@H](CCC(=O)O)NC1=O (Ac-CEH[d2Nal]R[Bta]ACPPRD[βAla]RRRRRRQRRR-NH2; disulfide 1-8) | 2360 | 86.1 |  | 41.7 | 19.4 |  |  |  |  |  |  | 
CCCC[C@H](NC(C)=O)C(=O)N[C@H]1CSSC(C)(C)[C@@H](C(N)=O)NC(=O)CCCNC(=O)[C@H](Cc2c[nH]c3ccccc23)NC(=O)[C@H](CCCNC(=N)N)NC(=O)[C@@H](Cc2ccccc2)NC(=O)[C@H](Cc2c[nH]cn2)NC1=O [Ac-Nle-c(Cys-His-D-Phe-Arg-Trp-Gaba-Pen)-NH2] (Ac-[Nle]CH[dF]RW[GABA][Pen]-NH2; disulfide 2-8) |  |  |  |  |  |  |  |  | 3.9 | 0.28 | 0.24 | 0.028
CC(=O)N[C@@H](CCCNC(=N)N)C(=O)N[C@H]1CSSC[C@@H](C(N)=O)NC(=O)[C@H](Cc2c[nH]c3ccccc23)NC(=O)[C@H](CCCNC(=N)N)NC(=O)[C@@H](Cc2ccc3ccccc3c2)NC(=O)[C@H](Cc2c[nH]cn2)NC(=O)[C@@H](C)NC1=O [Ac-Arg-c(Cys-D-Ala-His-D-2-Nal-Arg-Trp-Cys)-NH2] | 1110 | 193 |  | 5.72 | 1.58 |  |  |  |  |  |  | 

— US20120135923A1, “Use of Melanocortins to Treat Dyslipidemia” (IPSEN PHARMA, S.A.S., priority 2009, published 2012)
